Format in all cases: cell-based
Assay [1] has as its target T1, A431 cells EGFR-TK phosphorylation stimulated by EGF (Homo sapiens, UniProt P00533).
T1 construct: against A431 cells EGFR-TK; endogenous in cells; host or cells: A431 cells
Put plainly: Irreversible inhibition of cellular EGFR-TK (A431 cells, inhibition and recovery). The note with it: for Inhibition percent(%): A431 cells, 2 hours with compound, supplemented twice by compound-free medium, then EGF; for Activity (irreversible or reversible inhibitor): A431 cellular model test. The protocol:
Irreversible Inhibition of Cellular Epidermal Growth Factor Receptor Tyrosine Kinase (EGFR-TK)
1) A431 cells were cultured in a medium prepared by adding 10% FCS into another medium comprising 50% DMEM and 50% F12.
2) The A431 cells grown in six-well plates were cultured in a serum-free medium for 24 hours, during the period the medium was replenished once after 12 hours.
3) A solution containing a compound to be assessed was added to the A431 cells and cultured for 2 hours, supplemented twice by a medium free of the compound, and then EGF (100 ng/well) was added, and cultured for 5 minutes.
4) A431 cell homogenate was prepared by Laemili buffer which comprised 2% sodium dodecyl sulfonate (SDS), 5% 2-mercaptoethanol, 10% glycerol and 5 mM Tris; the pH value is 6.8.
5) The A431 cell homogenate was heated for 5 minutes at 100° C.
6) Proteins in the A431 cell homogenates were separated by PAGE, transferred onto a nitrocellulose membrane, and an infrared reading was obtained.

The subject of a further assay is A431 cells. The assay is described as follows: Cell growth inhibition assay (MTS assay), A431. The note with it: Homo sapiens, A-431; A431 cells; MTS, 48 hours; read-out: Growth inhibition activity EC50. (In general: Tetrazolium dyes change colour on reduction, which living cells bring about.)
Assay [2] addresses T1, A431 cells EGFR-TK phosphorylation stimulated by EGF. The assay is described as follows: Inhibition of cellular EGFR-TK phosphorylation stimulated by EGF in A431 cells. The note with it: for inhibition at 3 µM: A-431, concentration of 3 μM, A431 cells, EGF stimulated, one-time measurement at a single concentration (preliminary selection), NA = No activity, read-out: Inhibition Percent (%).

The mark [3] stands for this setting: A431 cells EGFR-TK phosphorylation stimulated by EGF (Table 4).
The mark [4] stands for this setting: A431 cells EGFR-TK phosphorylation stimulated by EGF (Table 5).

Consider 2 compounds from patent publication US8765946B2, “Methods of preparing and using quinazoline and quinoline derivatives” (priority 2006, dated 2014).

Structures are written as SMILES. pEC50: −log10 of the molar value.

T1 sequence (P00533 25-1210): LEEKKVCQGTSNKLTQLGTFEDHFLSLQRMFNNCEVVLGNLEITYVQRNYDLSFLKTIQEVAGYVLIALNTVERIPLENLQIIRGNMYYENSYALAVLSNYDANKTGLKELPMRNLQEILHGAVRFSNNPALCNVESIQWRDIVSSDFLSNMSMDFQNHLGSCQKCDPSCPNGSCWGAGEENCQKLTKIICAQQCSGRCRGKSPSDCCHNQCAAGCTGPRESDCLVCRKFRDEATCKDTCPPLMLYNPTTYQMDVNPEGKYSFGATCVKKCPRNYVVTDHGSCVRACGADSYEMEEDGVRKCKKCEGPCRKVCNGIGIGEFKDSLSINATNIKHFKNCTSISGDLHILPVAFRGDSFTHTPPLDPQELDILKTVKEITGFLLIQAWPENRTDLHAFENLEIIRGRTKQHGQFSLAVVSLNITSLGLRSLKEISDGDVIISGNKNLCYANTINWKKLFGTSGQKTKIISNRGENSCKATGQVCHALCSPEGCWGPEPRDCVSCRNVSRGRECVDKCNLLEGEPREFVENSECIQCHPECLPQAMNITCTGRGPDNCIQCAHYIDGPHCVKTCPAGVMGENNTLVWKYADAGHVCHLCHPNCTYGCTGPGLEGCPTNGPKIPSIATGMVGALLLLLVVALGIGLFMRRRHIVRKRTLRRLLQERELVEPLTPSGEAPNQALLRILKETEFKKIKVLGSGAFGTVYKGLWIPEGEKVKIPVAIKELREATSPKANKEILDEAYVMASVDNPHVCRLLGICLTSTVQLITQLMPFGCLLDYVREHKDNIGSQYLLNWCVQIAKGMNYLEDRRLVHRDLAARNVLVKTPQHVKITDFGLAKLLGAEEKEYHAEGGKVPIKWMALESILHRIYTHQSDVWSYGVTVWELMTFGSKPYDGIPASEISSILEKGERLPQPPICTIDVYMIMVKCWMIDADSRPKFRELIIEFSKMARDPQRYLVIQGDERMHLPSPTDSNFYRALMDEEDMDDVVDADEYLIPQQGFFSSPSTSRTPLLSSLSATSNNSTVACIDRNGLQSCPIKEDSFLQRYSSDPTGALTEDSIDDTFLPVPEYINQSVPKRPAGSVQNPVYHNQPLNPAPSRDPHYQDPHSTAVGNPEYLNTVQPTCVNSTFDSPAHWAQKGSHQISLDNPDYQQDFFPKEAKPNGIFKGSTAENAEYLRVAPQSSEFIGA

By pEC50 is commonly meant the EC50 on a negative log10 scale, so that one unit is a factor of ten. The term inhibition denotes the share of the control response that was lost under treatment. For `O=C(C=C1CCNCC1)Nc1ccc2ncnc(Nc3cccc(Br)c3)c2c1` [Example 33, N-(4-(3-bromophenylamino)quinazolin-6-yl)-2-(piperidin-4-ylidene)acetamide], in assay [1], the “Inhibition percent(%)” value stood at 89%. Further, in assay [1], the “Activity (irreversible or reversible inhibitor)” value is “Irreversible inhibitor”. Further, the pEC50 is 7.00 in the assay with A431 cells, 7.42 in assay [2] (setting [3]) and 7.42 in assay [2] (setting [4]). Moreover, the inhibition at 3 µM in assay [2] came to 94%.
Take `O=C(C=C1CCNCC1)Nc1ccc2ncnc(Nc3ccc(F)c(Cl)c3)c2c1` [Example 32, N-(4-(3-chloro-4-fluorophenylamino)quinazolin-6-yl)-2-(piperidin-4-ylidene)acetamide]: in assay [1], the “Inhibition percent(%)” value is 78%. For the same compound, the “Activity (irreversible or reversible inhibitor)” value in assay [1] is “Irreversible inhibitor”. The pEC50 in the assay with A431 cells is 6.22; in assay [2] (setting [3]), 7.05; in assay [2] (setting [4]) it was 7.05. Moreover, the inhibition at 3 µM in assay [2] stood at 87%.
